Data set [1] is described as follows: Pharmacokinetics (bioavailability) of formulations dosed to fasted Rhesus monkeys. It counts as in vivo. Particulars: rhesus monkey, blood, 3 fasted Rhesus monkeys. On the procedure:
Examples of preparations of pharmaceutical formulations are provided below. Bioavailability is determined in vivo by dosing trial formulations and/or other formulations of the active pharmaceutical ingredient (API) to Rhesus monkeys (normally three monkeys per trial) at a dose of 1 mg/kg of the API and then measuring the amount of API in the serum or blood as a function of time. Comparisons are made with other formulations containing the same amount and same concentration of the API, such as a solid formulation with conventional excipients or a liquid filled gelatin capsule containing equal parts by weight of Tween 80 and Cremophor EL and varying amounts of the API. The API is any compound of Formula I to Ij, and most often is Compound H.
A formulation as described above comprised of 8.8% (w/w) Compound II, 35.2% HPMCAS-LF, 25.75% lactose monohydrate, 25.75% microcrystalline cellulose (Avicel PH 102), 3% croscarmellose sodium, 0.5% colloidal silicon dioxide, and 1% magnesium stearate was transferred to capsules (568 mg fill weight), with each capsule containing […] of Compound H. The pharmacokinetic profile of this composition was tested in a panel of 3 fasted Rhesus monkeys with a single dose of 1 mg/kg.
For comparison, a formulation containing Compound II without the polymer was made and tested, as follows. The non-polymer formulation contained 5% of Compound II, 5% SDS surfactant, 1.5% HPC-EXF, 1% croscarmellose sodium, and 87.5% lactose, and was prepared by wet granulation and used in a dry-filled capsule. The pharmacokinetic profile of this composition was measured by administering a single 1 mg/kg dose to a panel of 3 fasted Rhesus monkeys and then measuring the amount of Compound II in the blood of the monkeys for a period of at least 24 hours. […] The pharmacokinetics are not as good for the “conventional” formulation as for the polymer formulations, even though the “conventional” formulation used as a control included a surfactant.
The last 3 rows summarize pharmacokinetic data obtained by administering a single dose of the formulation at a dose of 1 mg/kg to panels of 3 fasted Rhesus monkeys and measuring the concentration of Compound II in the blood for a period of at least 24 hours. The compositions can be varied more broadly to obtain desired properties, as summarized after the table.

For data set [2] the following is noted: Phase III clinical trials, long-term outcomes study, group taking the drug compared with the control group; cited from earlier work.
For data set [3] the following is noted: some patients who were taking torcetrapib; cited from earlier work.
Where [4] appears, read: po, 1 mg/kg, HME tablet formulation with 8% Compound II, 28% copovidone, 4% Vitamin E TPGS, single dose 1 mg/kg.
The mark [5] stands for this setting: po, 1 mg/kg, HME tablet formulation with 10% Compound II, 35% copovidone, 5% Vitamin E TPGS, single dose 1 mg/kg.
[6] abbreviates: po, 1 mg/kg, HME tablet formulation with 12% Compound II, 42% copovidone, 6% Vitamin E TPGS, single dose 1 mg/kg.
Where [7] appears, read: po, 1 mg/kg, spray dried polymer formulation in capsules (8.8% Compound II, 35.2% HPMCAS-LF), single dose 1 mg/kg, 24 hours.
Where [8] appears, read: oral, non-polymer "conventional" control formulation (5% Compound II, 5% SDS, 1.5% HPC-EXF, 1% croscarmellose sodium, 87.5% lactose), wet granulation, dry-filled capsule, single 1 mg/kg dose.

Like-named read-outs stand apart in the source and are kept apart here.

In the case of `COc1cc(F)c(C(C)C)cc1-c1ccc(C(F)(F)F)cc1CN1C(=O)O[C@H](c2cc(C(F)(F)F)cc(C(F)(F)F)c2)[C@@H]1C` [Compound II, (4S,5R)-5-[3,5-bis(trifluoromethyl)phenyl]-3-{[4′-fluoro-5′-isopropyl-2′-methoxy-4-(trifluoromethyl)biphenyl-2-yl]methyl}-4-methyl-1,3-oxazolidin-2-one], the Cmax (as a rule, the highest concentration seen after dosing) turned out to be 100 ± 10 nM in data set [1] (setting [4]); 100 ± 10 nM in data set [1] (setting [5]); 130 ± 10 nM in data set [1] (setting [6]); 120 ± 80 nM in data set [1] (setting [7]); 40 ± 30 nM in data set [1] (setting [8]). Further, the Tmax (usually the time at which the peak concentration occurs) in data set [1] (setting [4]) turned out to be 4 ± 2 h; in data set [1] (setting [5]), 5.3 ± 2 h; in data set [1] (setting [6]) it was 6.7 ± 1.2 h; in data set [1] (setting [7]), 6.7 ± 2.3 h; in data set [1] (setting [8]) it was 18.7 ± 9.2 h. In addition, the AUC(0-t) turned out to be 1.73 ± 0.28 µM·h in data set [1] (po, 1 mg/kg, HME tablet formulation with 8% Compound II, 28% copovidone, 4% Vitamin E TPGS, single dose 1 mg/kg, read-out: AUC (0-24 hrs)); 1.62 ± 0.27 µM·h in data set [1] (po, 1 mg/kg, HME tablet formulation with 10% Compound II, 35% copovidone, 5% Vitamin E TPGS, single dose 1 mg/kg, read-out: AUC (0-24 hrs)); 2.29 ± 0.21 µM·h in data set [1] (po, 1 mg/kg, HME tablet formulation with 12% Compound II, 42% copovidone, 6% Vitamin E TPGS, single dose 1 mg/kg, read-out: AUC (0-24 hrs)); 1.99 ± 1.1 µM·h in data set [1] (po, 1 mg/kg, spray dried polymer formulation in capsules (8.8% Compound II, 35.2% HPMCAS-LF), single dose 1 mg/kg, 24 hours, read-out: AUC0-24).
Turning to `CCOC(=O)N1c2ccc(C(F)(F)F)cc2[C@@H](N(Cc2cc(C(F)(F)F)cc(C(F)(F)F)c2)C(=O)OC)C[C@H]1CC` [torcetrapib], the “mortality versus control group” value in data set [2] is “increase in mortality”. Further, in data set [3], the “effect on blood pressure” value is “increase blood pressure”.

(Values after US8030359B2, “Polymer formulations of CETP inhibitors” (Merck Sharp & Dohme Corp., priority 2006, dated 2011).)
